In patent US7387997B2 (University of Utah, priority 2004, dated 2008):
Where a SMILES comes first, the peptide text is derived from it. Bridges are numbered along the chain shown (N, C = ends).

Legend:
Rat α3β2 nAChR = target: T1, Rat α3β2 nAChR (Rattus norvegicus, UniProt P04757+P12390); assay: cell-based; format: cell-based
T1 construct: expressed in transfected cells; host or cells: Xenopus laevis oocytes, cRNA injected

[1] = target: Mouse CNS α-MII Site (putative α6β2* nAChRs); format: binding
Rat α6/α3β2β3 nAChR = target: T2, Rat α6/α3β2β3 nAChR (Rattus norvegicus, UniProt P04757+P12390+P43143); assay: cell-based; format: cell-based
T2 construct: amino acids 1 to 237 of the rat α6 subunit protein; amino acids 233 to 499 of the rat α3 subunit protein; expressed in transfected cells; host or cells: Xenopus laevis oocytes, cRNA injected (pT7TS/rα6α3 for the chimera)

α4β2 nAChR = target: T3, α4β2 nAChR (Rattus norvegicus, UniProt P09483+P12390); format: cell-based
T3 construct: expressed in transfected cells; host or cells: Xenopus laevis oocytes, cRNA injected
T3 sequence (P09483 31-630 limits assumed): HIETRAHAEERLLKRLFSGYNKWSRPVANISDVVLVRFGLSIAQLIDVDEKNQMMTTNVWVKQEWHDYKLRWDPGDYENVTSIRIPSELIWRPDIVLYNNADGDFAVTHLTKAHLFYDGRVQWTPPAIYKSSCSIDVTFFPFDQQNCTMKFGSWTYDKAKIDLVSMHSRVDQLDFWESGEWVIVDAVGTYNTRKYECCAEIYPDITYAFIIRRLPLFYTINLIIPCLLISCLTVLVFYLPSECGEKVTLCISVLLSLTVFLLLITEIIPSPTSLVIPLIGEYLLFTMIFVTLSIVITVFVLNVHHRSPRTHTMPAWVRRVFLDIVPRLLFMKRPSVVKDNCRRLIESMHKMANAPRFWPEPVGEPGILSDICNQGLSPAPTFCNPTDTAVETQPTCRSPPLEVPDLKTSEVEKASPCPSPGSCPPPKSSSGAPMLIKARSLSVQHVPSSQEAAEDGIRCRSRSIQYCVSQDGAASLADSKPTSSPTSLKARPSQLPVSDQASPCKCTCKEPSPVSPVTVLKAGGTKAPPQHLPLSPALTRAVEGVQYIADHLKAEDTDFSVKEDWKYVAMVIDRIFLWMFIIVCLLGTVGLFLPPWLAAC
T3 sequence (P12390 25-500 limits assumed): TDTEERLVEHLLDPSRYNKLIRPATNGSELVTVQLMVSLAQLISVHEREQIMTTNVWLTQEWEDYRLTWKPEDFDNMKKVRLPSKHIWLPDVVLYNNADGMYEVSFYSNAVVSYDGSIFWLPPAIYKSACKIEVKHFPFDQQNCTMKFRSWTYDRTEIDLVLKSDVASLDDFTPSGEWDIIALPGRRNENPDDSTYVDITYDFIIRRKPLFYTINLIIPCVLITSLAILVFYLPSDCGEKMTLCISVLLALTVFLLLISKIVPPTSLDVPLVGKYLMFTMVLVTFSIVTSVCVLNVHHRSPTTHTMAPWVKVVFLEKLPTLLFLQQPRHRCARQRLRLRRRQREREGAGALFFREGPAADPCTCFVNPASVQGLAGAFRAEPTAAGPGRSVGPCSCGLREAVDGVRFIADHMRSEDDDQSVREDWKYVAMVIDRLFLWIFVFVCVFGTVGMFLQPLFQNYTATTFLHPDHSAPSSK

T2 sequence (P43143 31-237 limits assumed): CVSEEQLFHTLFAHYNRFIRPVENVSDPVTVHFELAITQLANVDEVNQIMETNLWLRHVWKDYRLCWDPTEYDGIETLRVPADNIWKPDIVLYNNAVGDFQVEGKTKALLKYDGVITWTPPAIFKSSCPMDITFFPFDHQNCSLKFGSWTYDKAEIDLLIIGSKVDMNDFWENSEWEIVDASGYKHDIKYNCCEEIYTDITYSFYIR
T2 sequence (P04757 233-499 limits assumed): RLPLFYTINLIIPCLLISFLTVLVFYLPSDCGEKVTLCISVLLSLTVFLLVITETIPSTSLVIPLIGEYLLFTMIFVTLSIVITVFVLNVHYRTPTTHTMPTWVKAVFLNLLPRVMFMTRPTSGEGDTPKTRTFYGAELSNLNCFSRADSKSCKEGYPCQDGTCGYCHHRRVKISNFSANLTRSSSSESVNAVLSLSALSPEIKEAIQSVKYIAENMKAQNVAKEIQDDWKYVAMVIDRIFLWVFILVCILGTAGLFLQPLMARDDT
T2 sequence (P12390 25-500 limits assumed): as the sequence (P12390 25-500 limits assumed) above
T1 sequence (P04757 26-499 limits assumed): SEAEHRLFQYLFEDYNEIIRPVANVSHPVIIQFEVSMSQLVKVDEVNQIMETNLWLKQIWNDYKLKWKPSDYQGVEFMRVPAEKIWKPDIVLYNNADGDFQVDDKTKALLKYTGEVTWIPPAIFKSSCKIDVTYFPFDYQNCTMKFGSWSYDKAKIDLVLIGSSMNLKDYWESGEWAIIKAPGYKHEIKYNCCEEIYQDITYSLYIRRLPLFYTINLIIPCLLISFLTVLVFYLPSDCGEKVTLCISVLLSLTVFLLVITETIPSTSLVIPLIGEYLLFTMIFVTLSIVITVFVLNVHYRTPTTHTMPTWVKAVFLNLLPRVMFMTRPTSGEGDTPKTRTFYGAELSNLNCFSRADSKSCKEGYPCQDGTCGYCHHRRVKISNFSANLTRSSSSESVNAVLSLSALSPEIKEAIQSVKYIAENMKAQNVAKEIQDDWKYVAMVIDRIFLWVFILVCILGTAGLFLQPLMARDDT
T1 sequence (P12390 25-500 limits assumed): as the sequence (P12390 25-500 limits assumed) above

## CC(C)C[C@@H]1NC(=O)[C@H](CC(N)=O)NC(=O)[C@H](CO)NC(=O)[C@H](Cc2c[nH]cn2)NC(=O)[C@H](CCC(=O)O)NC(=O)[C@H](CC(C)C)NC(=O)[C@H](Cc2c[nH]cn2)NC(=O)[C@@H]2CSSC[C@H](NC(=O)CN)C(=O)N[C@@H](CSSC[C@@H](C(N)=O)NC1=O)C(=O)N[C@@H](CO)C(=O)N[C@@H](CC(N)=O)C(=O)N1CCC[C@H]1C(=O)N[C@@H](C(C)C)C(=O)N2 [MII, reference compound]
Rat α3β2 nAChR
  Hill slope, α3β2: 0.75±0.13
[1]
  Ki: 0.22 nM

## CC(C)C[C@@H]1NC(=O)[C@H](Cc2c[nH]cn2)NC(=O)[C@@H]2CSSC[C@H](NC(=O)CN)C(=O)N[C@@H](CSSC[C@@H](C(N)=O)NC(=O)[C@H](C)NC(=O)[C@H](CC(N)=O)NC(=O)[C@H](CO)NC(=O)[C@H](Cc3c[nH]cn3)NC(=O)[C@H](C)NC1=O)C(=O)N[C@@H](CO)C(=O)N[C@@H](CC(N)=O)C(=O)N1CCC[C@H]1C(=O)N[C@@H](C(C)C)C(=O)N2 [MII[E11A; L15A]] (H-GCCSNPVCHLAHSNAC-NH2; disulfide 2-8, 3-16)
Rat α3β2 nAChR
  IC50: 50.1 nM
  Ratio IC50 α3β2/IC50 α6/α3β2β3: 121
Rat α6/α3β2β3 nAChR
  IC50: 0.415 nM

## CC(C)C[C@@H]1NC(=O)[C@H](C)NC(=O)[C@@H]2CSSC[C@H](NC(=O)CN)C(=O)N[C@@H](CSSC[C@@H](C(N)=O)NC(=O)[C@H](CC(C)C)NC(=O)[C@H](CC(N)=O)NC(=O)[C@H](CO)NC(=O)[C@H](Cc3c[nH]cn3)NC(=O)[C@H](CCC(=O)O)NC1=O)C(=O)N[C@@H](CO)C(=O)N[C@@H](CC(N)=O)C(=O)N1CCC[C@H]1C(=O)N[C@@H](C(C)C)C(=O)N2 [MII[H9A]] (H-GCCSNPVCALEHSNLC-NH2; disulfide 2-8, 3-16)
Rat α3β2 nAChR
  Hill slope, α3β2: 0.83±0.08
  IC50: 59 nM
  Ratio IC50 α3β2/IC50 α6/α3β2β3: 74.7
Rat α6/α3β2β3 nAChR
  Hill slope, α6/α3β2β3: 0.73±0.08
  IC50: 0.79 nM
α4β2 nAChR
  ACh response, percentage of control, Rα4β2: 105.8±2.4 % of control
[1]
  Ki: 1.1 nM

## CC(C)C[C@@H]1NC(=O)[C@H](CC(N)=O)NC(=O)[C@H](CO)NC(=O)[C@H](C)NC(=O)[C@H](CCC(=O)O)NC(=O)[C@H](CC(C)C)NC(=O)[C@H](Cc2c[nH]cn2)NC(=O)[C@@H]2CSSC[C@H](NC(=O)CN)C(=O)N[C@@H](CSSC[C@@H](C(N)=O)NC1=O)C(=O)N[C@@H](CO)C(=O)N[C@@H](CC(N)=O)C(=O)N1CCC[C@H]1C(=O)N[C@@H](C(C)C)C(=O)N2 [MII[H12A]] (H-GCCSNPVCHLEASNLC-NH2; disulfide 2-8, 3-16)
Rat α3β2 nAChR
  IC50: 4660 nM
  Ratio IC50 α3β2/IC50 α6/α3β2β3: 7.72
Rat α6/α3β2β3 nAChR
  IC50: 604 nM

## CC(C)[C@@H]1NC(=O)[C@@H]2CCCN2C(=O)[C@H](CC(N)=O)NC(=O)[C@H](CO)NC(=O)[C@@H]2CSSC[C@@H](C(N)=O)NC(=O)[C@H](C)NC(=O)[C@H](CC(N)=O)NC(=O)[C@H](CO)NC(=O)[C@H](Cc3c[nH]cn3)NC(=O)[C@H](CCC(=O)O)NC(=O)[C@H](C)NC(=O)[C@H](Cc3c[nH]cn3)NC(=O)[C@H](CSSC[C@H](NC(=O)CN)C(=O)N2)NC1=O [MII[L10A; L15A]] (H-GCCSNPVCHAEHSNAC-NH2; disulfide 2-8, 3-16)
Rat α3β2 nAChR
  IC50: 17.2 nM
  Ratio IC50 α3β2/IC50 α6/α3β2β3: 9.56
Rat α6/α3β2β3 nAChR
  IC50: 1.8 nM

## CC(C)C[C@@H]1NC(=O)[C@H](CC(N)=O)NC(=O)[C@H](CO)NC(=O)[C@H](Cc2c[nH]cn2)NC(=O)[C@H](CCC(=O)O)NC(=O)[C@H](C)NC(=O)[C@H](Cc2c[nH]cn2)NC(=O)[C@@H]2CSSC[C@H](NC(=O)CN)C(=O)N[C@@H](CSSC[C@@H](C(N)=O)NC1=O)C(=O)N[C@@H](CO)C(=O)N[C@@H](CC(N)=O)C(=O)N1CCC[C@H]1C(=O)N[C@@H](C(C)C)C(=O)N2 [MII[L10A]] (H-GCCSNPVCHAEHSNLC-NH2; disulfide 2-8, 3-16)
Rat α3β2 nAChR
  IC50: 1.47 nM
  Ratio IC50 α3β2/IC50 α6/α3β2β3: 3.05
Rat α6/α3β2β3 nAChR
  IC50: 0.482 nM

## CC(C)C[C@@H]1NC(=O)[C@H](Cc2c[nH]cn2)NC(=O)[C@@H]2CSSC[C@H](NC(=O)CN)C(=O)N[C@@H](CSSC[C@@H](C(N)=O)NC(=O)[C@H](C)NC(=O)[C@H](CC(N)=O)NC(=O)[C@H](CO)NC(=O)[C@H](Cc3c[nH]cn3)NC(=O)[C@H](CCC(=O)O)NC1=O)C(=O)N[C@@H](CO)C(=O)N[C@@H](CC(N)=O)C(=O)N1CCC[C@H]1C(=O)N[C@@H](C(C)C)C(=O)N2 [MII[L15A]] (H-GCCSNPVCHLEHSNAC-NH2; disulfide 2-8, 3-16)
Rat α3β2 nAChR
  Hill slope, α3β2: 0.58±0.08
  IC50: 34.1 nM
  Ratio IC50 α3β2/IC50 α6/α3β2β3: 37.2
Rat α6/α3β2β3 nAChR
  Hill slope, α6/α3β2β3: 0.75±0.08
  IC50: 0.917 nM
α4β2 nAChR
  ACh response, percentage of control, Rα4β2: 102.3±5.3 % of control
[1]
  Ki: 0.3 nM

## CC(C)C[C@@H]1NC(=O)[C@H](CC(N)=O)NC(=O)[C@H](CO)NC(=O)[C@H](Cc2c[nH]cn2)NC(=O)[C@H](CCC(=O)O)NC(=O)[C@H](CC(C)C)NC(=O)[C@H](Cc2c[nH]cn2)NC(=O)[C@@H]2CSSC[C@H](NC(=O)CN)C(=O)N[C@@H](CSSC[C@@H](C(N)=O)NC1=O)C(=O)N[C@@H](CO)C(=O)N[C@@H](C)C(=O)N1CCC[C@H]1C(=O)N[C@@H](C(C)C)C(=O)N2 [MII[N5A]] (H-GCCSAPVCHLEHSNLC-NH2; disulfide 2-8, 3-16)
Rat α3β2 nAChR
  IC50: > 10000 nM
  Ratio IC50 α3β2/IC50 α6/α3β2β3: >12.6
Rat α6/α3β2β3 nAChR
  IC50: 793 nM

## CC(C)C[C@@H]1NC(=O)[C@H](C)NC(=O)[C@H](CO)NC(=O)[C@H](Cc2c[nH]cn2)NC(=O)[C@H](CCC(=O)O)NC(=O)[C@H](CC(C)C)NC(=O)[C@H](Cc2c[nH]cn2)NC(=O)[C@@H]2CSSC[C@H](NC(=O)CN)C(=O)N[C@@H](CSSC[C@@H](C(N)=O)NC1=O)C(=O)N[C@@H](CO)C(=O)N[C@@H](CC(N)=O)C(=O)N1CCC[C@H]1C(=O)N[C@@H](C(C)C)C(=O)N2 [MII[N14A]] (H-GCCSNPVCHLEHSALC-NH2; disulfide 2-8, 3-16)
Rat α3β2 nAChR
  IC50: 25.7 nM
  Ratio IC50 α3β2/IC50 α6/α3β2β3: 24.2
Rat α6/α3β2β3 nAChR
  IC50: 1.06 nM

## CC(C)C[C@@H]1NC(=O)[C@H](CC(N)=O)NC(=O)[C@H](CO)NC(=O)[C@H](Cc2c[nH]cn2)NC(=O)[C@H](CCC(=O)O)NC(=O)[C@H](CC(C)C)NC(=O)[C@H](Cc2c[nH]cn2)NC(=O)[C@@H]2CSSC[C@H](NC(=O)CN)C(=O)N[C@@H](CSSC[C@@H](C(N)=O)NC1=O)C(=O)N[C@@H](CO)C(=O)N[C@@H](CC(N)=O)C(=O)N[C@@H](C)C(=O)N[C@@H](C(C)C)C(=O)N2 [MII[P6A]] (H-GCCSNAVCHLEHSNLC-NH2; disulfide 2-8, 3-16)
Rat α3β2 nAChR
  IC50: 4420 nM
  Ratio IC50 α3β2/IC50 α6/α3β2β3: 17.5
Rat α6/α3β2β3 nAChR
  IC50: 253 nM

## CC(C)C[C@@H]1NC(=O)[C@H](C)NC(=O)[C@@H]2CSSC[C@H](NC(=O)CN)C(=O)N[C@@H](CSSC[C@@H](C(N)=O)NC(=O)[C@H](CC(C)C)NC(=O)[C@H](CC(N)=O)NC(=O)[C@H](CO)NC(=O)[C@H](Cc3c[nH]cn3)NC(=O)[C@H](CCC(=O)O)NC1=O)C(=O)N[C@@H](C)C(=O)N[C@@H](CC(N)=O)C(=O)N1CCC[C@H]1C(=O)N[C@@H](C(C)C)C(=O)N2 [MII[S4A; H9A]] (H-GCCANPVCALEHSNLC-NH2; disulfide 2-8, 3-16)
Rat α3β2 nAChR
  IC50: 207 nM
  Ratio IC50 α3β2/IC50 α6/α3β2β3: 105
Rat α6/α3β2β3 nAChR
  IC50: 1.97 nM

## CC(C)C[C@@H]1NC(=O)[C@H](CC(N)=O)NC(=O)[C@H](CO)NC(=O)[C@H](Cc2c[nH]cn2)NC(=O)[C@H](CCC(=O)O)NC(=O)[C@H](CC(C)C)NC(=O)[C@H](Cc2c[nH]cn2)NC(=O)[C@@H]2CSSC[C@H](NC(=O)CN)C(=O)N[C@@H](CSSC[C@@H](C(N)=O)NC1=O)C(=O)N[C@@H](C)C(=O)N[C@@H](CC(N)=O)C(=O)N1CCC[C@H]1C(=O)N[C@@H](C(C)C)C(=O)N2 [MII[S4A]] (H-GCCANPVCHLEHSNLC-NH2; disulfide 2-8, 3-16)
Rat α3β2 nAChR
  IC50: 15.8 nM
  Ratio IC50 α3β2/IC50 α6/α3β2β3: 21.56
Rat α6/α3β2β3 nAChR
  IC50: 0.733 nM

## CC(C)C[C@@H]1NC(=O)[C@H](CC(N)=O)NC(=O)[C@H](C)NC(=O)[C@H](Cc2c[nH]cn2)NC(=O)[C@H](CCC(=O)O)NC(=O)[C@H](CC(C)C)NC(=O)[C@H](Cc2c[nH]cn2)NC(=O)[C@@H]2CSSC[C@H](NC(=O)CN)C(=O)N[C@@H](CSSC[C@@H](C(N)=O)NC1=O)C(=O)N[C@@H](CO)C(=O)N[C@@H](CC(N)=O)C(=O)N1CCC[C@H]1C(=O)N[C@@H](C(C)C)C(=O)N2 [MII[S13A]] (H-GCCSNPVCHLEHANLC-NH2; disulfide 2-8, 3-16)
Rat α3β2 nAChR
  IC50: 2.54 nM
  Ratio IC50 α3β2/IC50 α6/α3β2β3: 3.85
Rat α6/α3β2β3 nAChR
  IC50: 0.659 nM

## CC(C)C[C@@H]1NC(=O)[C@H](CC(N)=O)NC(=O)[C@H](CO)NC(=O)[C@H](Cc2c[nH]cn2)NC(=O)[C@H](CCC(=O)O)NC(=O)[C@H](CC(C)C)NC(=O)[C@H](Cc2c[nH]cn2)NC(=O)[C@@H]2CSSC[C@H](NC(=O)CN)C(=O)N[C@@H](CSSC[C@@H](C(N)=O)NC1=O)C(=O)N[C@@H](CO)C(=O)N[C@@H](CC(N)=O)C(=O)N1CCC[C@H]1C(=O)N[C@@H](C)C(=O)N2 [MII[V7A]] (H-GCCSNPACHLEHSNLC-NH2; disulfide 2-8, 3-16)
Rat α3β2 nAChR
  IC50: 4.46 nM
  Ratio IC50 α3β2/IC50 α6/α3β2β3: 0.421
Rat α6/α3β2β3 nAChR
  IC50: 10.6 nM
